Each structure is given as a SMILES string.

We go through 17 molecules from US20210395239A1 (Hoffmann-La Roche Inc., priority 2018, published 2021).

This assay addresses T1, human TLR7 (Homo sapiens, UniProt Q9NYK1).
T1 construct: host or cells: HEK293 (HEK-Blue hTLR7)
T1 sequence (Q9NYK1 27-1049): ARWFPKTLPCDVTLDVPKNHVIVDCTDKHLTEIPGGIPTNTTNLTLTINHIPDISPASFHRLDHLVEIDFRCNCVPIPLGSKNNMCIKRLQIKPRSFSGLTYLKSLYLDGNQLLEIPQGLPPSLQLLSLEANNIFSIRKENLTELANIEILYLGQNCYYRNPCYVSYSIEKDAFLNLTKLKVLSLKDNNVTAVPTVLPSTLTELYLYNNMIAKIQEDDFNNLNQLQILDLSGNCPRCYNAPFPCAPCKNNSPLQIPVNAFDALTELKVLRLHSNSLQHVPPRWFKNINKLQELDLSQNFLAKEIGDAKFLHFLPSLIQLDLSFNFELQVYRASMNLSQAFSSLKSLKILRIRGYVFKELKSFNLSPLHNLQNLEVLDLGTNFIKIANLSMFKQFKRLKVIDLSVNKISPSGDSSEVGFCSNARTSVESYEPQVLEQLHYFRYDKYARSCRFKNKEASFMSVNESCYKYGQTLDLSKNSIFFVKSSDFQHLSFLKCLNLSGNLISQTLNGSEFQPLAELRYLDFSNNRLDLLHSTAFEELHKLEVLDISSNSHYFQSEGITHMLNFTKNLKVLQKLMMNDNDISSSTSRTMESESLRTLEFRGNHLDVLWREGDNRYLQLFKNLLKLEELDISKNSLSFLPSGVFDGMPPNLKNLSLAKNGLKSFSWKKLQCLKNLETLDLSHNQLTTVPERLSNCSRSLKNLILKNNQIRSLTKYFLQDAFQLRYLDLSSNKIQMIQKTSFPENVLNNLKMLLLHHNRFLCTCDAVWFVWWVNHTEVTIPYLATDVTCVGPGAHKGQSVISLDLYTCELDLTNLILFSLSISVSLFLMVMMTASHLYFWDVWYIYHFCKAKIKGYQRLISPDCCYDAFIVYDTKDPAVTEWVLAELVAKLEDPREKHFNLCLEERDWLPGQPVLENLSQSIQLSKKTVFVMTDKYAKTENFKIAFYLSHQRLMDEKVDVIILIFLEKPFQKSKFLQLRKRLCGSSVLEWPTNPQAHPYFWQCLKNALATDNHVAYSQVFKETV
Nature of the assay: HEK293-Blue-hTLR-7 cells assay (SEAP reporter, R848 stimulation). It is filed as cell-based. The note with it: HEK293-Blue-hTLR7 cells, R848, 20 hrs; read-out: HEK/hTLR7 IC50. From the text: HEK293-Blue-hTLR-7 Cells Assay:
A stable HEK293-Blue-hTLR-7 cell line was purchased from InvivoGen (Cat. #: hkb-ht1r7, San Diego, Calif., USA). These cells were originally designed for studying the stimulation of human TLR7 by monitoring the activation of NF-κB. A SEAP (secreted embryonic alkaline phosphatase) reporter gene was placed under the control of the IFN-β minimal promoter fused to five NF-κB and AP-1-binding sites. The SEAP was induced by activating NF-κB and AP-1 via stimulating HEK-Blue hTLR7 cells with TLR7 ligands. Therefore the reporter expression was declined by TLR7 antagonist under the stimulation of a ligand, such as R848 (Resiquimod), for incubation of 20 hrs. The cell culture supernatant SEAP reporter activity was determined using QUANTI-Blue™ kit (Cat. #: rep-qb1, Invivogen, San Diego, Ca, USA) at a wavelength of 640 nm, a detection medium that turns purple or blue in the presence of alkaline phosphatase.
HEK293-Blue-hTLR7 cells were incubated at a density of […] cells/mL in a volume of 170 μL in a 96-well plate in Dulbecco's Modified Eagle's medium (DMEM) containing 4.5 g/L glucose, 50 U/mL penicillin, […], […], 2 mM L-glutamine, 10% (v/v) heat-inactivated fetal bovine serum with addition of 20 μL test compound in a serial dilution in the presence of final DMSO at 1% and 10 μL of 20 uM R848 in above DMEM, perform incubation under 37° C. in a CO2 incubator for 20 hrs. Then 20 μL of the supernatant from each well was incubated with 180 μL Quanti-blue substrate solution at 37° C. for 2 hrs and the absorbance was read at 620˜655 nm using a spectrophotometer. The signaling pathway that TLR7 activation leads to downstream NF-κB activation has been widely accepted, and therefore similar reporter assay was modified for evaluating TLR7 antagonist.
As to `[2H]c1ccc2c(N3C[C@H](CN4CCN(c5ccc(N[C@H]6CNC[C@H]6F)nc5)CC4)O[C@H](C)C3)ccc(C#N)c2n1` [Example 162, 2-deuterio-5-[(2S,6R)-2-[[4-[6-[[(3S,4R)-4-fluoropyrrolidin-3-yl]amino]-3-pyridyl]piperazin-1-yl]methyl]-6-methyl-morpholin-4-yl]quinoline-8-carbonitrile], the IC50 was 11 nM.

`[2H]c1ccc2c(N3C[C@H](CN4CC(c5cnc(N6CC(C)(N)C6)cc5C)C4)O[C@H](C)C3)ccc(C#N)c2n1` [Example 145, 5-[(2S,6R)-2-[[3-[6-(3-amino-3-methyl-azetidin-1-yl)-4-methyl-3-pyridyl]azetidin-1-yl]methyl]-6-methyl-morpholin-4-yl]-2-deuterio-quinoline-8-carbonitrile]: the IC50 amounted to 14 nM.

For `C[C@@H]1CN(c2ccc(C#N)c3nccnc23)C[C@H](CN2CCN(c3nccc(N4CC(N)C4)n3)CC2)O1` [Example 118, 8-[(2S,6R)-2-[[4-[4-(3-aminoazetidin-1-yl)pyrimidin-2-yl]piperazin-1-yl]methyl]-6-methyl-morpholin-4-yl]quinoxaline-5-carbonitrile], the IC50 is 4 nM.

Consider `C[C@@H]1CN(c2ccc(C#N)c3nccnc23)C[C@H](CN2CCN(c3ccnc(N4CC[C@@H](N)[C@H](F)C4)n3)CC2)O1` [Example 113, 8-[(2S,6R)-2-[[4-[2-[(3R,4R)-4-amino-3-fluoro-1-piperidyl]pyrimidin-4-yl]piperazin-1-yl]methyl]-6-methyl-morpholin-4-yl]quinoxaline-5-carbonitrile], for which the IC50 is 8 nM. The result for `[2H]c1ccc2c(N3C[C@H](CN4CC(c5ccc(N6CC(C)(N)C6)nc5)C4)O[C@H](C)C3)ccc(C#N)c2n1` [Example 138, 5-[(2S,6R)-2-[[3-[6-(3-amino-3-methyl-azetidin-1-yl)-3-pyridyl]azetidin-1-yl]methyl]-6-methyl-morpholin-4-yl]-2-deuterio-quinoline-8-carbonitrile] reads 5 nM; that for `CO[C@H]1CN(c2ccnc(N3CCN(C[C@H]4CN(c5ccc(C#N)c6ncccc56)C[C@@H](C)O4)CC3)n2)C[C@@H]1N` [Example 97, 5-[(2S,6R)-2-[[4-[4-[(3S,4S)-3-amino-4-methoxy-pyrrolidin-1-yl]pyrimidin-2-yl]piperazin-1-yl]methyl]-6-methyl-morpholin-4-yl]quinoline-8-carbonitrile], 27 nM; that for `Cc1cc(N2C[C@@H](N)[C@@H](F)C2)nc(N2CCN(C[C@H]3CN(c4ccc(C#N)c5nccnc45)C[C@@H](C)O3)CC2)n1` [Example 115, 8-[(2S,6R)-2-[[4-[4-[(3R,4S)-3-amino-4-fluoro-pyrrolidin-1-yl]-6-methyl-pyrimidin-2-yl]piperazin-1-yl]methyl]-6-methyl-morpholin-4-yl]quinoxaline-5-carbonitrile], 4 nM. The result for `C[C@@H]1CN(c2ccc(C#N)n3nccc23)C[C@H](CN2CC(c3ccc(N4CC(C)(N)C4)nc3)C2)O1` [Example 157, 4-[(2S,6R)-2-[[3-[6-(3-amino-3-methyl-azetidin-1-yl)-3-pyridyl]azetidin-1-yl]methyl]-6-methyl-morpholin-4-yl]pyrazolo[1,5-a]pyridine-7-carbonitrile] reads 8 nM; that for `[2H]c1ccc2c(N3C[C@H](CN4CCN(c5ccc(N6C[C@@H](N)[C@H](OC)C6)nc5)CC4)O[C@H](C)C3)ccc(C#N)c2n1` [Example 143, 5-[(2S,6R)-2-[[4-[6-[(3R,4R)-3-amino-4-methoxy-pyrrolidin-1-yl]-3-pyridyl]piperazin-1-yl]methyl]-6-methyl-morpholin-4-yl]-2-deuterio-quinoline-8-carbonitrile], 21 nM. The result for `CO[C@H]1CN(c2cc(C)nc(N3CCN(C[C@H]4CN(c5ccc(C#N)c6nccnc56)C[C@@H](C)O4)CC3)n2)C[C@@H]1N` [Example 104, 8-[(2S,6R)-2-[[4-[4-[(3S,4S)-3-amino-4-methoxy-pyrrolidin-1-yl]-6-methyl-pyrimidin-2-yl]piperazin-1-yl]methyl]-6-methyl-morpholin-4-yl]quinoxaline-5-carbonitrile] reads 22 nM; that for `[2H]c1ccc2c(N3C[C@H](CN4CCN(c5cccc(N6CC(C)(N)C6)n5)CC4)O[C@H](C)C3)ccc(C#N)c2n1` [Example 155, 5-[(2S,6R)-2-[[4-[6-(3-amino-3-methyl-azetidin-1-yl)-2-pyridyl]piperazin-1-yl]methyl]-6-methyl-morpholin-4-yl]-2-deuterio-quinoline-8-carbonitrile], 18 nM; that for `CO[C@@H]1CN(c2nccc(N3CCN(C[C@H]4CN(c5ccc(C#N)c6nccnc56)C[C@@H](C)O4)CC3)n2)C[C@H]1N` [Example 98, 8-[(2S,6R)-2-[[4-[2-[(3R,4R)-3-amino-4-methoxy-pyrrolidin-1-yl]pyrimidin-4-yl]piperazin-1-yl]methyl]-6-methyl-morpholin-4-yl]quinoxaline-5-carbonitrile], 6 nM. Turning to `Cc1ccc(N2C[C@H](CN3CCN(c4ccnc(N5C[C@H]6NCCO[C@@H]6C5)n4)CC3)O[C@H](C)C2)c2nccnc12` [Example 129, (4aR,7aR)-6-[4-[4-[[(2S,6R)-6-methyl-4-(8-methylquinoxalin-5-yl)morpholin-2-yl]methyl]piperazin-1-yl]pyrimidin-2-yl]-3,4,4a,5,7,7a-hexahydro-2H-pyrrolo[3,4-b][1,4]oxazine], the IC50 was found to be 20 nM. The result for `[2H]c1ccc2c(N3C[C@H](CN4CC(c5cnc(N6C[C@@H](N)[C@H](OC)C6)cc5C)C4)O[C@H](C)C3)ccc(C#N)c2n1` [Example 146, 5-[(2S,6R)-2-[[3-[6-[(3R,4R)-3-amino-4-methoxy-pyrrolidin-1-yl]-4-methyl-3-pyridyl]azetidin-1-yl]methyl]-6-methyl-morpholin-4-yl]-2-deuterio-quinoline-8-carbonitrile] reads 13 nM. The result for `C[C@@H]1CN(c2ccc(C#N)c3ncccc23)C[C@H](CN2CC(c3ccc(N4CCNCC4)cc3)C2)O1` [Example 3, 5-[(2R,6S)-2-methyl-6-[[3-(4-piperazin-1-ylphenyl)azetidin-1-yl]methyl]morpholin-4-yl]quinoline-8-carbonitrile] reads 11 nM. As to `[2H]c1ccc2c(N3C[C@H](CN4CCN(c5nc(C)cc(N6CC(N)C6)n5)CC4)O[C@H](C)C3)ccc(C#N)c2n1` [Example 136, 5-[(2S,6R)-2-[[4-[4-(3-aminoazetidin-1-yl)-6-methyl-pyrimidin-2-yl]piperazin-1-yl]methyl]-6-methyl-morpholin-4-yl]-2-deuterio-quinoline-8-carbonitrile], the IC50 is 7 nM. Then `[2H]c1ccc2c(N3C[C@H](CN4CC(O)(c5ccc(N6CC(C)(N)C6)cc5)C4)O[C@H](C)C3)ccc(C#N)c2n1` [Example 156, 5-[(2S,6R)-2-[[3-[4-(3-amino-3-methyl-azetidin-1-yl)phenyl]-3-hydroxy-azetidin-1-yl]methyl]-6-methyl-morpholin-4-yl]-2-deuterio-quinoline-8-carbonitrile], with 21 nM.
